Results on eleven molecules are retold here after ChEMBL document CHEMBL5346961, “Discovery and Evaluation of 3-Quinoxalin Urea Derivatives as Potent, Selective, and Orally Available ATM Inhibitors Combined with Chemotherapy for the Treatment of Cancer via Goal-Oriented Molecule Generation and Virtual Screening” (J Med Chem, 2023).

Some results are limits rather than exact numbers.

Data set [1] can be described thus: Metabolic stability in human liver microsomes assessed as half life at 1 uM in presence of NADPH-regenerating system by LC-MS/MS analysis. The data set is classed as ADME, Microsome. For orientation: Liver microsomes are a subcellular fraction often used to study metabolism.
In data set [2] the target is T1, Serine-protein kinase ATM (Homo sapiens, UniProt Q13315). The data set is described as follows: Inhibition of ATM (unknown origin) preincubated with compound for 30 mins followed by substrate addition and measured after 2 hrs by HTRF method. On the technique in general: Time-resolved FRET reads energy transfer from a long-lived donor to a nearby acceptor.
T1 sequence (Q13315 whole entry): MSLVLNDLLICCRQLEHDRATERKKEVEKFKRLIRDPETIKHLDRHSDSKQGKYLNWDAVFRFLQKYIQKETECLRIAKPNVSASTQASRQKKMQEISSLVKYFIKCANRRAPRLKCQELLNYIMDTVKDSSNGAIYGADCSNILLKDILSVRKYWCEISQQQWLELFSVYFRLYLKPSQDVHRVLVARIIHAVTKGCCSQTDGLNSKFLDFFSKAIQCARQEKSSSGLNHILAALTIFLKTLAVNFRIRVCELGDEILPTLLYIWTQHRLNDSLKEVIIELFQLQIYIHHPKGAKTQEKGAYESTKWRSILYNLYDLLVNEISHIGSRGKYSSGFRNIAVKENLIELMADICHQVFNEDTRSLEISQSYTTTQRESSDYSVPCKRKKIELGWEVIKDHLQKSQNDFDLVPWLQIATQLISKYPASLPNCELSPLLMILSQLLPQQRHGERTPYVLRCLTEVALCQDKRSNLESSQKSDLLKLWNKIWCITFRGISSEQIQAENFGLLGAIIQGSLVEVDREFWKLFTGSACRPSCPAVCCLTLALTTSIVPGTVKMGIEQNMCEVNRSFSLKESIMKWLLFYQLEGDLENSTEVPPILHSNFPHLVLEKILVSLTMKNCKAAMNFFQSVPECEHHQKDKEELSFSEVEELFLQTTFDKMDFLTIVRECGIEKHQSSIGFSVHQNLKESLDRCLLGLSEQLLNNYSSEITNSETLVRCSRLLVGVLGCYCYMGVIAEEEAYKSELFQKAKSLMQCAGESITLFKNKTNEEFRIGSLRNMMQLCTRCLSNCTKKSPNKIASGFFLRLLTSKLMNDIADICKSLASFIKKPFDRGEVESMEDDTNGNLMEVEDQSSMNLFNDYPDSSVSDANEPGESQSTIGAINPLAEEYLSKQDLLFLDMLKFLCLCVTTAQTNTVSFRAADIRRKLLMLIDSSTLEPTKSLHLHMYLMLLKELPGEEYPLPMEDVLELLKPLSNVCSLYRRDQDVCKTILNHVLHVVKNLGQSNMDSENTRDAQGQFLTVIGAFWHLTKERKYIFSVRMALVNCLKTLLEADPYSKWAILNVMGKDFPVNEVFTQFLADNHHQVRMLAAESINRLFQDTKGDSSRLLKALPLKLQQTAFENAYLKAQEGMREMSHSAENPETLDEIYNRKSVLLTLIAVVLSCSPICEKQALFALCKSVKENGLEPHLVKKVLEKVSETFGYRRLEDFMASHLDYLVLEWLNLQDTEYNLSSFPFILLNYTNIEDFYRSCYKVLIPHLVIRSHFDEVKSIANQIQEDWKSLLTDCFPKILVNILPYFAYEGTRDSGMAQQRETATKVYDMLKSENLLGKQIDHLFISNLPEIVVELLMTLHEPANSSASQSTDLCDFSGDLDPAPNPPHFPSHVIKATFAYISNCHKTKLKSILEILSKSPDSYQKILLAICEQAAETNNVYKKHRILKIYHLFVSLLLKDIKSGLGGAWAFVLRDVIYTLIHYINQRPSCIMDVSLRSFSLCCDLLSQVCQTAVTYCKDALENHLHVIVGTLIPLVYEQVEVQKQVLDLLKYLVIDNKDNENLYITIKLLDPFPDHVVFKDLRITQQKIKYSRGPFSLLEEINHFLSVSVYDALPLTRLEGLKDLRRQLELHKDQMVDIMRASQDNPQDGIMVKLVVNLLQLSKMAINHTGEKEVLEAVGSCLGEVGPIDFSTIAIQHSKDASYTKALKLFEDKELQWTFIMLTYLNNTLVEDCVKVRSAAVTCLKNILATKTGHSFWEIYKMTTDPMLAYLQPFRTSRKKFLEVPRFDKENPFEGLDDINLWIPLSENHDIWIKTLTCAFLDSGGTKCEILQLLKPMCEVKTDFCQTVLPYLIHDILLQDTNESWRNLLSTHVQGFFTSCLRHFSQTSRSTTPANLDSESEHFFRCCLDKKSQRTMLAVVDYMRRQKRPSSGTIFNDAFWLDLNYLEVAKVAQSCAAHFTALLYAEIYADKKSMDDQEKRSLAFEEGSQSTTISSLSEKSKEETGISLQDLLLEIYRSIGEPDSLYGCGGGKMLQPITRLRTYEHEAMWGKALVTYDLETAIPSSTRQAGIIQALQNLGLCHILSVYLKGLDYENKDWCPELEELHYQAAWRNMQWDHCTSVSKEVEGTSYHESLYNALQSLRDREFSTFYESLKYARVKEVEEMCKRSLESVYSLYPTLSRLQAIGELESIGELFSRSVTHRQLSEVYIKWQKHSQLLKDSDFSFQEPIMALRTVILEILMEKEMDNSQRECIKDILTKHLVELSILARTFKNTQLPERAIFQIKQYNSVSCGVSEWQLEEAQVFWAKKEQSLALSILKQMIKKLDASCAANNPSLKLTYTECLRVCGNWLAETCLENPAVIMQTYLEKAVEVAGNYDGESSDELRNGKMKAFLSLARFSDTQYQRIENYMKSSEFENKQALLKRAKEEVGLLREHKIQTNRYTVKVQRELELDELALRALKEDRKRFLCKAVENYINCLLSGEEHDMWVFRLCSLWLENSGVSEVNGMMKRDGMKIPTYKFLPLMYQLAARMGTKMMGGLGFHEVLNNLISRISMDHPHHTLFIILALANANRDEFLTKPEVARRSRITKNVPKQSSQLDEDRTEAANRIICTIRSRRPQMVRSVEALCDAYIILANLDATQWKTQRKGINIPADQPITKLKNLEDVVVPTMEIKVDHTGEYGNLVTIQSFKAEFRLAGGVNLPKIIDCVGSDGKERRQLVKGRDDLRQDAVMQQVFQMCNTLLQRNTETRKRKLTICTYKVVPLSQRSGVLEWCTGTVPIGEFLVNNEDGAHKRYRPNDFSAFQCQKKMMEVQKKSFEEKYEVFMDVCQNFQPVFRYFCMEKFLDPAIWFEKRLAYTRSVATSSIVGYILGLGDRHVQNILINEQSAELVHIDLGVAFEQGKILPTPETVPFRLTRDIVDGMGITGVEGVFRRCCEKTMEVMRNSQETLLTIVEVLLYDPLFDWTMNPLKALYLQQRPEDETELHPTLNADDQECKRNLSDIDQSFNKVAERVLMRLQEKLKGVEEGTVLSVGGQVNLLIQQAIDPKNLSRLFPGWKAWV
Data set [3] deals with T1, Serine-protein kinase ATM. The data set is described as follows: Inhibition of ATM (unknown origin) assessed as remaining activity at 0.01 uM preincubated with compound for 30 mins followed by substrate addition and measured after 2 hrs by HTRF method relative to control. Particulars: time 2.5 hrs.
The nature of data set [4]: Metabolic stability in human liver microsomes assessed as clearance at 1 uM in presence of NADPH-regenerating system by LC-MS/MS analysis. The class given is ADME, Microsome.
Data set [5] concerns HCT-116. The data set is described as follows: Inhibition of colony formation in human HCT-116 cells preincubated for 1 hr followed by exposure to 2 Gy gamma irradiation and measured after 1 week by crystal violet staining based […] assay. The data set is classed as functional, cell-based. Conditions: HCT-116, light or radiation study.
The test system of data set [6] is HCT-116. Description: Inhibition of colony formation in human HCT-116 cells at 0.01 uM preincubated for 1 hr followed by exposure to 2 Gy gamma irradiation and measured after 1 week by crystal violet staining based […] assay relative to control. The data set is classed as functional. Conditions: HCT-116, light or radiation study, time 169 hrs.
Data set [7] deals with HCT-116. The data set is described as follows: Antiproliferative activity against human HCT-116 cells assessed as cell survival at 1 uM incubated for 6 days by MTT assay relative to control. The data set is classed as functional. Particulars: HCT-116, 144 h, time 6 day, read-out: Survival. For orientation: Formazan colour is commonly taken as a measure of viable cells.
The target of data set [8] is T1, Serine-protein kinase ATM. Description: Inhibition of ATM (unknown origin) assessed as remaining activity at 1 uM preincubated with compound for 30 mins followed by substrate addition and measured after 2 hrs by HTRF method relative to control. Particulars: time 2.5 hrs.
The target of data set [9] is Serine/threonine-protein kinase ATR (Homo sapiens, UniProt Q13535). The data set is described as follows: Inhibition of ATR (unknown origin) assessed as remaining activity at 1 uM in presence of [gamma33P-ATP] by radiometric assay.

Take `CC(C)NC(=O)N(C)c1cnc2ccc(-c3ccc(OCCCN4CCN(C)CC4)nc3)cc2n1`: in [1], the half-life (commonly how long it takes for the measured level to halve) at 1 µM was found to be 1.78 h. In addition, the IC50 (usually the concentration that gives 50% inhibition) in [2] is 3 nM; with HCT-116 [5], 5.41 nM. In addition, in data set [3], the Activity is 5%. Moreover, the CLH in data set [4] was 13 mL/min/g. At 0.01 µM the inhibition in the data set on HCT-116 [6] was 73.6%. The viability at 1 µM in the data set with HCT-116 [7] was over 83%.
Regarding `CN(C)CCCOc1ccc(-c2ccc3ncc4c(c3c2)n(C2CCOCC2)c(=O)n4C)cn1`, in the data set on HCT-116 [5], the IC50 was 0.46 nM. For the same molecule, in the data set on HCT-116 [6], testing at 0.01 µM gave an inhibition of 94.3%.
Turning to `Cc1nc(OCCCN2CCCCC2)ccc1-c1ccc2ncc(N(C)C(=O)NC(C)C)nc2c1`, the results for the Activity in data set [8] and in [3] were -4% and 16%, respectively. In addition, the half-life at 1 µM in [1] was found to be 7.7 h. Further, the IC50 in data set [2] amounted to 9 nM; with HCT-116 [5], 21.9 nM. The CLH in data set [4] came to 3 mL/min/g. Further, in the data set with HCT-116 [6], the inhibition (in general, how much of the control response was suppressed) at 0.01 µM stood at 48.2%.
With `CN(C)CCCOc1ccc(-c2ccc3ncc(N(C)C(=O)NC4CCCCC4)nc3c2)cn1`, the half-life at 1 µM in [1] was 0.25 h. For the same molecule, the IC50 is 0.9 nM in [2] and 0.54 nM in the data set on HCT-116 [5]. For the same molecule, the Activity in [9] is 94%; in [3] it was -1%. In addition, in data set [4], the CLH was determined as 94 mL/min/g. Moreover, in the data set on HCT-116 [6], the inhibition at 0.01 µM was found to be 99.6%. In addition, the viability at 1 µM in the data set on HCT-116 [7] was over 83%.
Turning to `CCN(CC)CCCOc1ccc(-c2ccc3ncc(N(C)C(=O)NC(C)C)nc3c2)cn1`, the results for the Activity in [8] and in data set [3] were -3% and 19%, respectively. The half-life at 1 µM in [1] turned out to be 1.65 h. The values for the IC50 (in data set [2]; in the data set with HCT-116 [5]) were 1 nM and 6.97 nM, respectively. The CLH in [4] turned out to be 14 mL/min/g. In addition, the inhibition at 0.01 µM in the data set with HCT-116 [6] was found to be 72.8%. Also, the viability at 1 µM with HCT-116 [7] was over 83%.
`CCCCNC(=O)N(C)c1cnc2ccc(-c3ccc(OCCCN(C)C)nc3)cc2n1`: the half-life at 1 µM in data set [1] was determined as 0.367 h. Further, the IC50 in [2] stood at 0.8 nM; in the data set with HCT-116 [5], 7.65 nM. Moreover, the Activity in [9] was determined as 105%; in data set [3] it was 3%. For the same molecule, in data set [4], the CLH was found to be 64 mL/min/g. 0.01 µM produced 92.7% inhibition in the data set on HCT-116 [6]. The viability at 1 µM in the data set with HCT-116 [7] was over 83%.
For `CC(C)NC(=O)N(C)c1cnc2ccc(-c3ccc(OCCCN4CCCCC4)nc3F)cc2n1`, the half-life at 1 µM in data set [1] came to 3.12 h. Also, the IC50 came to 1 nM in [2] and 15.4 nM with HCT-116 [5]. Further, the CLH in data set [4] is 7.4 mL/min/g. Also, the inhibition at 0.01 µM with HCT-116 [6] is 68.7%.
On to `CN(C)CCCOc1ccc(-c2ccc3ncc(N(C)C(=O)NC4CC4)nc3c2)cn1`, for which the half-life at 1 µM in data set [1] is 0.683 h. The figures for the IC50 (in data set [2]; in the data set on HCT-116 [5]) were 8 nM and 15.3 nM, respectively. Also, the Activity came to 114% in data set [9] and 17% in data set [3]. The CLH in data set [4] was 39 mL/min/g. This molecule also came in with an inhibition at 0.01 µM with HCT-116 [6] of 43.9%. Moreover, the viability at 1 µM in the data set on HCT-116 [7] is over 83%.
For the molecule `CC(C)NC(=O)N(C)c1cnc2ccc(-c3ccc(OCCCN4CCOCC4)nc3)cc2n1`, the half-life at 1 µM in [1] stood at 1.02 h. The IC50 in data set [2] turned out to be 3 nM; with HCT-116 [5] it was 7.13 nM. Moreover, the Activity in data set [3] was determined as 4%. Further, the CLH in [4] stood at 24 mL/min/g. This molecule gave an inhibition at 0.01 µM in the data set with HCT-116 [6] of 64.1%. Moreover, in the data set on HCT-116 [7], the viability at 1 µM is over 83%.
For the molecule `C=CCNC(=O)N(C)c1cnc2ccc(-c3ccc(OCCCN(C)C)nc3)cc2n1`, in [1], the half-life at 1 µM is 0.417 h. Moreover, the results for the IC50 (in data set [2]; in the data set on HCT-116 [5]) were 2 nM and 12.2 nM, respectively. The Activity was determined as 103% in data set [9] and 11% in data set [3]. Besides, in [4], the CLH worked out at 55 mL/min/g. This molecule also showed an inhibition at 0.01 µM in the data set with HCT-116 [6] of 49.7%.
With `CC(C)NC(=O)N(C)c1cnc2ccc(-c3ccc(OCCCN4CCCC4)nc3F)cc2n1`, the half-life at 1 µM in [1] amounted to 3.4 h. In addition, the values for the IC50 (in [2]; with HCT-116 [5]) were 4 nM and 26.5 nM, respectively. Further, the CLH in data set [4] came out at 6.8 mL/min/g. For the same molecule, in the data set on HCT-116 [6], the inhibition at 0.01 µM is 43.4%.
